Assay results: PubChem BioAssay AID2060491 (Molecular Pharmacology Branch, DTP, NCI, 2025)

Test system: 857933-349-R-J2-PDC complex spheroids, viability
Assay: Anticancer human tumor 857933-349-R-J2-PDC patient-derived colon adenocarcinoma cell line growth inhibition [GQUAD]
Conditions: for IC50: curve of first compound; for viability, T/C: stronger effect = lower value
Method in brief: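 Multi-cell-type spheroids of tumor cells with HUVEC and mesenchymal stem cells, treated with drug combinations. Concentrations descend in half-log steps from near clinical Cmax, or from 10 microM where Cmax is unknown; viability read-out.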

[1] = second compound 0.0316 µM, first compound 0.0316 µM
[2] = second compound 0.0316 µM, first compound 0.1 µM
[3] = second compound 0.0316 µM, first compound 0.316 µM
[4] = second compound 0.0316 µM, first compound 1 µM
[5] = second compound 0.0316 µM, first compound 3.16 µM
[6] = second compound 0.0316 µM, first compound 10 µM
[7] = second compound 0.1 µM, first compound 0.0316 µM
[8] = second compound 0.1 µM, first compound 0.1 µM
[9] = second compound 0.1 µM, first compound 0.316 µM
[10] = second compound 0.1 µM, first compound 1 µM
[11] = second compound 0.1 µM, first compound 3.16 µM
[12] = second compound 0.1 µM, first compound 10 µM
[13] = second compound 0.316 µM, first compound 0.0316 µM
[14] = second compound 0.316 µM, first compound 0.1 µM
[15] = second compound 0.316 µM, first compound 0.316 µM
[16] = second compound 0.316 µM, first compound 1 µM
[17] = second compound 0.316 µM, first compound 3.16 µM
[18] = second compound 0.316 µM, first compound 10 µM
[19] = second compound 1 µM, first compound 0.0316 µM
[20] = second compound 1 µM, first compound 0.1 µM
[21] = second compound 1 µM, first compound 0.316 µM
[22] = second compound 1 µM, first compound 1 µM
[23] = second compound 1 µM, first compound 3.16 µM
[24] = second compound 1 µM, first compound 10 µM
[25] = second compound 3.16 µM, first compound 0.0316 µM
[26] = second compound 3.16 µM, first compound 0.1 µM
[27] = second compound 3.16 µM, first compound 0.316 µM
[28] = second compound 3.16 µM, first compound 1 µM
[29] = second compound 3.16 µM, first compound 3.16 µM
[30] = second compound 3.16 µM, first compound 10 µM
[31] = second compound 10 µM, first compound 0.0316 µM
[32] = second compound 10 µM, first compound 0.1 µM
[33] = second compound 10 µM, first compound 0.316 µM
[34] = second compound 10 µM, first compound 1 µM
[35] = second compound 10 µM, first compound 3.16 µM
[36] = second compound 10 µM, first compound 10 µM
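Further: spheroids exposed to compounds for one week before readout.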
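Wherever viability, T/C is given: percent viability relative to vehicle DMSO wells taken as 100%.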

Q: With `O=c1[nH]cc(F)c(=O)[nH]1` + CN(C)c1ccc(Nc2c3ccc(NC(=O)CCN4CCCC4)cc3nc3cc(NC(=O)CCN4CCCC4)ccc23)cc1 as the compound, how does the IC50 (second compound 0.0316 µM) read?
A: 7510 nM

Q: What about the IC50 (second compound 0.1 µM) of the same compound?
A: 9410 nM

Q: And the IC50 (second compound 0.316 µM)?
A: 8130 nM

Q: What about the IC50 (second compound 1 µM) of the same compound?
A: 7140 nM

Q: And the IC50 (second compound 3.16 µM)?
A: 7560 nM

Q: What about the IC50 (second compound 10 µM) of the same compound?
A: 9080 nM

Q: And the viability, T/C [1]?
A: 104%

Q: And the viability, T/C [2]?
A: 96.8%

Q: And the viability, T/C [3]?
A: 97%

Q: What about the viability, T/C [4] of the same compound?
A: 88.7%

Q: And the viability, T/C [5]?
A: 60.6%

Q: And the viability, T/C [6]?
A: 46.5%

Q: And the viability, T/C [7]?
A: 103%

Q: What about the viability, T/C [8] of the same compound?
A: 105%

Q: What about the viability, T/C [9] of the same compound?
A: 91.7%

Q: What about the viability, T/C [10] of the same compound?
A: 86.4%

Q: What about the viability, T/C [11] of the same compound?
A: 61.3%

Q: And the viability, T/C [12]?
A: 50%

Q: What about the viability, T/C [13] of the same compound?
A: 102%

Q: What about the viability, T/C [14] of the same compound?
A: 96.7%

Q: And the viability, T/C [15]?
A: 100%

Q: What about the viability, T/C [16] of the same compound?
A: 83.7%

Q: And the viability, T/C [17]?
A: 64.8%

Q: What about the viability, T/C [18] of the same compound?
A: 46.7%

Q: What about the viability, T/C [19] of the same compound?
A: 95.3%

Q: What about the viability, T/C [20] of the same compound?
A: 91.8%

Q: What about the viability, T/C [21] of the same compound?
A: 95.6%

Q: What about the viability, T/C [22] of the same compound?
A: 77.7%

Q: What about the viability, T/C [23] of the same compound?
A: 63.6%

Q: What about the viability, T/C [24] of the same compound?
A: 44.6%

Q: What about the viability, T/C [25] of the same compound?
A: 92.9%

Q: What about the viability, T/C [26] of the same compound?
A: 80%

Q: What about the viability, T/C [27] of the same compound?
A: 92.7%

Q: What about the viability, T/C [28] of the same compound?
A: 75.1%

Q: And the viability, T/C [29]?
A: 61.7%

Q: And the viability, T/C [30]?
A: 46.3%

Q: And the viability, T/C [31]?
A: 70.9%

Q: And the viability, T/C [32]?
A: 78.9%

Q: What about the viability, T/C [33] of the same compound?
A: 77.2%

Q: And the viability, T/C [34]?
A: 74.4%

Q: And the viability, T/C [35]?
A: 61.4%

Q: What about the viability, T/C [36] of the same compound?
A: 49%

Q: What does the source list for `COc1cccc2c1C(=O)c1c(O)c3c(c(O)c1C2=O)CC(O)(C(=O)CO)CC3OC1CC(N)C(O)C(C)O1` (stereo unspecified) + Cc1cnc(CNC(=O)c2c(=O)c3ccc(N4CCCN(C)CC4)nc3n3c2sc2ccccc23)cn1?
A: IC50 (second compound 0.0316 µM): 398 nM; IC50 (second compound 0.1 µM): 212 nM; IC50 (second compound 0.316 µM): < 31.6 nM; IC50 (second compound 1 µM): < 31.6 nM; IC50 (second compound 3.16 µM): < 31.6 nM; IC50 (second compound 10 µM): < 31.6 nM; viability, T/C [1]: 72.5%; viability, T/C [2]: 51.6%; viability, T/C [3]: 54.1%; viability, T/C [4]: 35.8%; viability, T/C [5]: 3.33%; viability, T/C [6]: 0.11%; viability, T/C [7]: 53%; viability, T/C [8]: 57.9%; viability, T/C [9]: 44.4%; viability, T/C [10]: 29.3%; viability, T/C [11]: 2.19%; viability, T/C [12]: 0.13%; viability, T/C [13]: 27.1%; viability, T/C [14]: 29.6%; viability, T/C [15]: 11.8%; viability, T/C [16]: 4.55%; viability, T/C [17]: 0.39%; viability, T/C [18]: 0.1%; viability, T/C [19]: 5.09%; viability, T/C [20]: 6.32%; viability, T/C [21]: 3.38%; viability, T/C [22]: 1.67%; viability, T/C [23]: 0.15%; viability, T/C [24]: 0.09%; viability, T/C [25]: 2.45%; viability, T/C [26]: 2.76%; viability, T/C [27]: 1.56%; viability, T/C [28]: 0.62%; viability, T/C [29]: 0.14%; viability, T/C [30]: 0.12%; viability, T/C [31]: 2.24%; viability, T/C [32]: 2.09%; viability, T/C [33]: 0.73%; viability, T/C [34]: 0.23%; viability, T/C [35]: 0.23%; viability, T/C [36]: 0.19%

Q: `CC[C@@]1(O)C(=O)OCc2c1cc1n(c2=O)Cc2cc3c(CN(C)C)c(O)ccc3nc2-1` + CN(C)c1ccc(Nc2c3ccc(NC(=O)CCN4CCCC4)cc3nc3cc(NC(=O)CCN4CCCC4)ccc23)cc1 was tested. Which IC50 (second compound 0.0316 µM) did it give?
A: 262 nM

Q: What about the IC50 (second compound 0.1 µM) of the same compound?
A: 272 nM

Q: What about the IC50 (second compound 0.316 µM) of the same compound?
A: 277 nM

Q: And the IC50 (second compound 1 µM)?
A: 296 nM

Q: What about the IC50 (second compound 3.16 µM) of the same compound?
A: > 316 nM

Q: And the IC50 (second compound 10 µM)?
A: > 316 nM

Q: What about the viability, T/C (second compound 0.0316 µM, first compound 0.000999 µM) of the same compound?
A: 101%

Q: What about the viability, T/C (second compound 0.0316 µM, first compound 0.00316 µM) of the same compound?
A: 103%

Q: And the viability, T/C (second compound 0.0316 µM, first compound 0.00999 µM)?
A: 101%

Q: And the viability, T/C [1]?
A: 98.2%

Q: What about the viability, T/C (second compound 0.0316 µM, first compound 0.0999 µM) of the same compound?
A: 67%

Q: What about the viability, T/C [3] of the same compound?
A: 46.7%

Q: And the viability, T/C (second compound 0.1 µM, first compound 0.000999 µM)?
A: 105%

Q: What about the viability, T/C (second compound 0.1 µM, first compound 0.00316 µM) of the same compound?
A: 109%

Q: And the viability, T/C (second compound 0.1 µM, first compound 0.00999 µM)?
A: 95.3%

Q: And the viability, T/C [7]?
A: 97.7%

Q: What about the viability, T/C (second compound 0.1 µM, first compound 0.0999 µM) of the same compound?
A: 70.5%

Q: What about the viability, T/C [9] of the same compound?
A: 47%

Q: What about the viability, T/C (second compound 0.316 µM, first compound 0.000999 µM) of the same compound?
A: 108%

Q: What about the viability, T/C (second compound 0.316 µM, first compound 0.00316 µM) of the same compound?
A: 101%

Q: What about the viability, T/C (second compound 0.316 µM, first compound 0.00999 µM) of the same compound?
A: 98.7%

Q: And the viability, T/C [13]?
A: 89.6%

Q: What about the viability, T/C (second compound 0.316 µM, first compound 0.0999 µM) of the same compound?
A: 80.7%

Q: What about the viability, T/C [15] of the same compound?
A: 45.1%

Q: And the viability, T/C (second compound 1 µM, first compound 0.000999 µM)?
A: 99.7%

Q: And the viability, T/C (second compound 1 µM, first compound 0.00316 µM)?
A: 99.1%

Q: And the viability, T/C (second compound 1 µM, first compound 0.00999 µM)?
A: 95.9%

Q: And the viability, T/C [19]?
A: 88.5%

Q: What about the viability, T/C (second compound 1 µM, first compound 0.0999 µM) of the same compound?
A: 77.1%

Q: And the viability, T/C [21]?
A: 48%

Q: What about the viability, T/C (second compound 3.16 µM, first compound 0.000999 µM) of the same compound?
A: 94.2%

Q: And the viability, T/C (second compound 3.16 µM, first compound 0.00316 µM)?
A: 77.4%

Q: What about the viability, T/C (second compound 3.16 µM, first compound 0.00999 µM) of the same compound?
A: 84.7%

Q: What about the viability, T/C [25] of the same compound?
A: 76.1%

Q: What about the viability, T/C (second compound 3.16 µM, first compound 0.0999 µM) of the same compound?
A: 77.8%

Q: What about the viability, T/C [27] of the same compound?
A: 54.5%

Q: And the viability, T/C (second compound 10 µM, first compound 0.000999 µM)?
A: 72.3%

Q: What about the viability, T/C (second compound 10 µM, first compound 0.00316 µM) of the same compound?
A: 76.8%

Q: And the viability, T/C (second compound 10 µM, first compound 0.00999 µM)?
A: 69.5%

Q: And the viability, T/C [31]?
A: 69.9%

Q: What about the viability, T/C (second compound 10 µM, first compound 0.0999 µM) of the same compound?
A: 68.7%

Q: And the viability, T/C [33]?
A: 59%
